Assay results published in patent publication US4472582A, “3,5-Disubstituted-4'-(9-acridinylamino)-methane-sulfon-m-anisidide compounds having antitumor properties” (Development Finance Corporation of New Zealand, priority 1979, dated 1984).

Tests used:
L1210 leukemia = details: in words, literature; cited from earlier work
poly.dAT = test: Drug-DNA binding, poly.dAT (AT)
Description: (§1) CT, AT and GC=are relative, inverse measures of compound--DNA binding for calf thymus DNA (CT); poly.dAT (AT) and poly. dGC (GC). (B. C. Baguley and E. M. Falkenhaugh, Nucleic Acids Res., 5, 161-171 (1978), B. F. Cain, B. C. Baguley and W. A. Denny, J. Med. Chem., 21, 658-668 (1978)).

poly. dGC = test: Drug-DNA binding, poly.dGC (GC)
Description: as §1

[1] = tested on: TA1537 strain of Salmonella typhimurium; test: Mutagenicity assay in TA1537 strain; details: for Mutagenicity D50: Salmonella typhimurium TA1537; for Mutagenicity M50 (percentage mutation frequency at the D50 (×10^4)): Salmonella typhimurium TA1537, at the D50
Description: The quantitative measures of mutagenicity employed in the present studies are those detailed in L. R. Ferguson and W. A. Denny, J. Med. Chem., 22, 251-255 (1979) of early QSAR developed in this area.
D50 and M50=quantitative measures derived from mutagenicity assays in TA1537 strain of Salmonella typhimurium, defined in L. R. Ferguson and W. A. Denny, J. Med. Chem., 22, 251-255 (1979). (The values of M50 are percentage mutation frequencies at the D50 (×10^4).)

[2] = Basic pKa measured spectrophotometrically; type: physicochemical; details: 20% aqueous dimethylformamide, spectrophotometric; read-out: pK (basic pKa)
L1210 leukemia (sc) = test: Antileukemic screen, L1210 tumour sc, drug ip qd 1-5; type: in vivo, mice (C3H/DBA2 F1 hybrids); design: LD10 / D40 (drug dose necessary to provide 40% ILS): unit not given here; details: for D40 (drug dose necessary to provide 40% ILS): Strain F1, Schedule qd 1-5, Table II; for ILS (increase in life span at the LD10): Strain F1, Schedule qd 1-5, at LD10, Table II; for LD10: Strain F1, Schedule qd 1-5, drug ip, Table II
Description: (§2) In initial screening a standard drug administration schedule has been employed (ip, qd 1-5) and mice (C3 H/DBA2 F1 hybrids) bred in the laboratory, receive a standard tumor inoculum of 10^5 L1210 cells ip on day 0. After range finding experiments, an LD10 dose has then been derived employing doses separated by 0.05 log.dose units, an acceptable soluble drug formulation (B. F. Cain, R. N. Seelye and G. J. Atwell, J. Med. Chem., 17, 922-930 (1974)) and groups of six tumored mice at each dose level. Deaths occuring before day 8 have been taken as resulting from drug toxicity. From the linear regression relating percent probit-mortality and the logarithms of the corresponding doses, an LD10 value has been derived. Profiles of antileukemic activity have been obtained employing doses separated by 0.09 log.dose intervals. Significant percentage increases in life span of leukemic animals, obtained at and below the LD10 dose, have been linearly correlated with the logarithms of the corresponding doses. The increase in life span (ILS) specified by the life extension-log.dose regression line at the measured LD10 provides a representative measure of antileukemic effectiveness at a standard host load in toxicity (W. A. Denny and B. F. Cain, J. Med. Chem., 21, 430-437 (1978)). For congener selection ILS has been employed as a measure of factor (1) above and LD10 for factor (2). Desirable drug pharmacokinetic properties (factor (3)) have been screened for by employing standard ip drug administration and implanting tumor more remotely; either subcutaneously (sc) or intracerabrally (ic) (B. F. Cain and G. J. Atwell Europ J. Cancer, 10, 539 549 (1974), B. F. Cain and G. J. Atwell, J. Med. Chem., 19 1409-1416 (1976)).
(§3) ILS and LD10=as defined above.
(§4) D40=the drug dose necessary to provide 40% ILS in standard L1210 assays.

L1210 leukemia (ip) = test: Antileukemic screen, L1210 tumour ip, drug ip qd 1-5; type: in vivo, mice (C3H/DBA2 F1 hybrids); design: LD10 / D40 (drug dose necessary to provide 40% ILS): unit not given here; details: for ILS Observed: L1210-ip, qd 1-5, Table III; for ILS (increase in life span at the LD10) / LD10 / D40 (drug dose necessary to provide 40% ILS): Tumour L1210-ip, Table II; for ILS (increase in life span at the LD10): Strain F1, Schedule qd 1-5, at LD10; for LD10: Strain F1, Schedule qd 1-5, drug ip; for D40 (drug dose necessary to provide 40% ILS): Strain F1, Schedule qd 1-5; for Antitumour activity in leukemic animals / Dose potency: in words
Description: as §2, §3, §4

calf thymus DNA = test: Drug-DNA binding, calf thymus DNA (CT)
Description: as §1

[3] = Lipophilic-hydrophilic balance by reversed phase chromatography; type: physicochemical; details: linearly related to 1-octanol/H2O partition coefficients
Description: Rm =a measure of the compound's lipophilichydrophilic balance from reversed phase chromatography. Rm is linearly related to partition coefficients obtained in the 1-octanol/H2 O system.

L1210 leukemia (ic) = test: Intracerebrally implanted L1210; type: in vivo, mice; details: in words
Description: as §2

[4] = tested on: experimental tumour systems; details: in words, literature; cited from earlier work
[5] = Water solubility / ease of formulation; type: physicochemical; details: in words
[6] = tested on: Ames bacterial tester strains TA98, TA100, TA1537; type: cell-based
Description: As clinical cancer chemotherapy improves, and patients live symptom free for longer intervals, it is obviously important that the agents employed are not carcinogenic and capable of disease re-induction.

| Structure (SMILES) | Antitumour activity in L1210 leukemia (L1210 leukemia) | AT (relative, inverse measure of compound-DNA binding) (poly.dAT) | GC (relative, inverse measure of compound-DNA binding) (poly. dGC) | Mutagenicity D50 [1] | Mutagenicity M50 (percentage mutation frequency at the D50 (×10^4)) [1] | pKa [2] | D40 (drug dose necessary to provide 40% ILS) (L1210 leukemia (sc)) | ILS (increase in life span at the LD10) (L1210 leukemia (sc)) [%] | LD10 (L1210 leukemia (sc)) | ILS Observed (L1210 leukemia (ip)) [%] | ILS (increase in life span at the LD10) (L1210 leukemia (ip)) [%] | LD10 (L1210 leukemia (ip)) | D40 (drug dose necessary to provide 40% ILS) (L1210 leukemia (ip)) | Antitumour activity in leukemic animals (L1210 leukemia (ip)) | CT (relative, inverse measure of compound-DNA binding) (calf thymus DNA) | Rm (reversed-phase chromatographic lipophilicity) [3] | Inhibition of intra-cerebrally implanted L1210 (L1210 leukemia (ic)) | Ease of formulation [5] | Dose potency (L1210 leukemia (ip)) | Direct mutagenicity [6] | other results |
| --- | --- | --- | --- | --- | --- | --- | --- | --- | --- | --- | --- | --- | --- | --- | --- | --- | --- | --- | --- | --- | --- |
| CS(=O)(=O)Nc1ccc(Nc2c3ccccc3nc3ccccc23)cc1 [AMSA, 4'-(9-acridinylamino) methanesulfonanilide] | high antitumour activity |  |  |  |  |  |  |  |  |  |  |  |  |  |  |  |  |  |  |  |  |
| COc1cc(NS(C)(=O)=O)ccc1Nc1c2ccc(C)cc2nc2c(C(=O)NCC(N)=O)cccc12 [Compound 2] |  | 6.53 | 1.84 | 27.6 | 0 % (×10^4) | 6.58 | 60 | 50 | 120 | 200 | 200 | 120 | 10 | unusually high antitumour activity in leukemic animals | 6.53 | -0.32 |  |  |  |  |  |
| COc1cc(NS(C)(=O)=O)ccc1Nc1c2ccc(Cl)cc2nc2c(C(=O)NCC(N)=O)cccc12 [Compound 3] |  |  | 4.91 | 12.4 | 0 % (×10^4) | 5.71 | 175 | 65 | 330 | 120 | 120 | 300 | 25 |  |  | -0.23 |  |  |  |  |  |
| COc1cc(NS(C)(=O)=O)ccc1Nc1c2ccccc2nc2ccccc12 [m-AMSA, 4'-(9-acridinylamino)-methanesulfon-m-anisidide] | highly effective in treating L1210 leukemia |  |  |  |  |  | 8.0 | 45 | 10 |  | 111 | 9 | 2.5 |  |  |  | does not |  |  |  | Activity in other experimental tumour systems [4]: has shown promise in a number of other experimental tumour systems |
| CNC(=O)c1ccc2c(Nc3ccc(NS(C)(=O)=O)cc3OC)c3cccc(C)c3nc2c1 [Compound 4] |  | 3.2 |  | 43.8 | 0.16 % (×10^4) | 6.64 | 15 | 100 | 25 | 150 | 150 | 20 | 1 |  |  | -0.17 | inhibit intra-cerebrally implanted L1210 | easily formulable | good dose potency | lack significant mutagenic activity | Antitumour activity in leukemic animals (L1210 leukemia (ip); listed as 5-methyl-3-methylcarboxamido): high experimental antitumor activity |
| CNC(=O)c1cccc2c(Nc3ccc(NS(C)(=O)=O)cc3OC)c3ccc(C)cc3nc12 [Compound 1] |  | 4.74 | 2.76 | 15.3 | 1.0 % (×10^4) | 6.6 |  | 30 | 10 | 200 | 200 | 12 | 3 | unusually high antitumour activity in leukemic animals | 5.53 | 0.32 | inhibit intra-cerebrally implanted L1210 | easily formulable | good dose potency | lack significant mutagenic activity | Antitumour activity in leukemic animals (L1210 leukemia (ip); listed as 3-methyl-5-methylcarboxamido): high experimental antitumor activity |
